From the NIST ThermoML archive (doi:10.1016/j.jct.2018.02.010)
Numbers after ± are expanded uncertainties.

What was measured:
[1] = 101.3 kPa, Liquid mixture 1, spinning drop method
[2] = 298.15 K; for surface tension liquid-gas: Maximal bubble pressure; for mass density: 101.33 kPa, Liquid, Vibrating tube method
[3] = refractive index (Na D-line) (dimensionless); details: 298.15 K; 101.33 kPa; Liquid; refractometer model RFM 81

| interfacial tension ([1]; 278.15 K) [mN/m] | interfacial tension ([1]; 288.15 K) [mN/m] | interfacial tension ([1]; 298.15 K) [mN/m] | interfacial tension ([1]; 308.15 K) [mN/m] | interfacial tension ([1]; 318.15 K) [mN/m] | interfacial tension ([1]; 328.15 K) [mN/m] | interfacial tension ([1]; 338.15 K) [mN/m] | interfacial tension ([1]; 348.15 K) [mN/m] | interfacial tension ([1]; 358.15 K) [mN/m] | surface tension liquid-gas [2] [mN/m] | mass density [2] [kg/m3] | refractive index [3] | SMILES |
| --- | --- | --- | --- | --- | --- | --- | --- | --- | --- | --- | --- | --- |
| 0.56 ± 0.03 | 0.77 ± 0.03 |  |  |  |  |  |  |  |  |  |  | COC=O [methyl methanoate] + O |
| 14.6 ± 0.03 | 15 ± 0.03 | 15.5 ± 0.03 | 15.7 ± 0.03 | 15.8 ± 0.03 | 15.7 ± 0.03 | 15.5 ± 0.03 | 15.1 ± 0.03 | 14.6 ± 0.03 |  |  |  | CCCCCC(=O)OC [methyl hexanoate] + O |
| 13.6 ± 0.03 | 14 ± 0.03 | 14.1 ± 0.03 | 14 ± 0.03 | 13.9 ± 0.03 | 13.7 ± 0.03 | 13.5 ± 0.03 | 13.2 ± 0.03 | 12.9 ± 0.03 |  |  |  | CCCCC(=O)OC [methyl pentanoate] + O |
| 1.86 ± 0.03 | 1.77 ± 0.03 | 1.66 ± 0.03 | 1.49 ± 0.03 | 1.17 ± 0.03 | 0.75 ± 0.03 |  |  |  |  |  |  | COC(C)=O [methyl ethanoate] + O |
|  |  |  |  |  |  |  |  |  | 26.01 ± 0.26 | 879.76 ± 0.72 | 1.40443 ± 0.0008 | CCCCCC(=O)OC [methyl hexanoate] |
|  |  |  |  |  |  |  |  |  | 24.93 ± 0.25 | 926.9 ± 0.72 | 1.36008 ± 0.0008 | COC(C)=O [methyl ethanoate] |
|  |  |  |  |  |  |  |  |  | 24.61 ± 0.25 | 909.3 ± 0.72 | 1.37572 ± 0.0008 | CCC(=O)OC [methyl propanoate] |
|  |  |  |  |  |  |  |  |  | 24.96 ± 0.25 | 960.85 ± 0.3 | 1.34174 ± 0.0008 | COC=O [methyl methanoate] |
| 10.6 ± 0.03 | 10.9 ± 0.03 | 11.1 ± 0.03 | 11.1 ± 0.03 | 11 ± 0.03 | 10.6 ± 0.03 | 10.05 ± 0.03 | 9.4 ± 0.03 |  |  |  |  | CCCC(=O)OC [methyl butanoate] + O |
| 7.02 ± 0.03 | 7.55 ± 0.03 | 7.69 ± 0.03 | 7.56 ± 0.03 | 7.34 ± 0.03 | 6.63 ± 0.03 | 5.06 ± 0.03 |  |  |  |  |  | CCC(=O)OC [methyl propanoate] + O |
|  |  |  |  |  |  |  |  |  | 25.34 ± 0.25 | 885.66 ± 0.72 | 1.39628 ± 0.0008 | CCCCC(=O)OC [methyl pentanoate] |
|  | 16 ± 0.03 | 16.7 ± 0.03 | 17.3 ± 0.04 | 17.5 ± 0.04 | 17.6 ± 0.04 | 17.5 ± 0.04 | 16.9 ± 0.03 | 15.9 ± 0.03 |  |  |  | CCCCCCC(=O)OC [methyl heptanoate] + O |
|  |  |  |  |  |  |  |  |  | 24.56 ± 0.25 | 892.62 ± 0.72 | 1.38486 ± 0.0008 | CCCC(=O)OC [methyl butanoate] |
|  |  |  |  |  |  |  |  |  | 26.73 ± 0.26 | 875.61 ± 0.72 | 1.41086 ± 0.0008 | CCCCCCC(=O)OC [methyl heptanoate] |
